Test results published in PubChem BioAssay (NCI).
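A five-concentration, 48-hour dose response in 96-well plates underlies each endpoint, interpolated linearly between surrounding concentrations. GI50: concentration for 50% inhibition of growth. TGI: concentration producing complete growth inhibition.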

Tests used:
Assay in all cases: NCI anticancer screen, dose series, 48 h
HOP-92 NSCLC = test system: HOP-92 NSCLC
MALME-3M melanoma = test system: MALME-3M melanoma
SK-MEL-2 melanoma = test system: SK-MEL-2 melanoma
UO-31 renal = test system: UO-31 renal
CCRF-CEM leukemia = test system: CCRF-CEM leukemia
NCI-H522 lung = test system: NCI-H522 lung
SW-620 colon = test system: SW-620 colon
UACC-62 melanoma = test system: UACC-62 melanoma
OVCAR-8 ovarian = test system: OVCAR-8 ovarian
A498 renal = test system: A498 renal
ACHN renal = test system: ACHN renal
SR leukemia = test system: SR leukemia
CAKI-1 renal = test system: CAKI-1 renal
UACC-257 melanoma = test system: UACC-257 melanoma
HS 578T breast = test system: HS 578T breast
NCI-H23 lung = test system: NCI-H23 lung
U251 CNS = test system: U251 CNS
OVCAR-5 ovarian = test system: OVCAR-5 ovarian
M14 melanoma = test system: M14 melanoma
COLO 205 colon = test system: COLO 205 colon
HCT-116 colon = test system: HCT-116 colon
SK-MEL-5 melanoma = test system: SK-MEL-5 melanoma
SF-539 CNS = test system: SF-539 CNS
A549 NSCLC = test system: A549 NSCLC
SNB-75 CNS = test system: SNB-75 CNS
T-47D breast = test system: T-47D breast
OVCAR-3 ovarian = test system: OVCAR-3 ovarian
SN12C renal = test system: SN12C renal

Cn1cc(-c2cc(N)n3nc(-c4cn(C)c5ccccc45)cc3n2)c2cc(Br)ccc21
GI50 (HOP-92 NSCLC): 1480 nM | TGI (HOP-92 NSCLC): 3.16 µM | GI50 (MALME-3M melanoma): 1660 nM | TGI (MALME-3M melanoma): 3.08 µM | GI50 (SK-MEL-2 melanoma): 1680 nM | TGI (SK-MEL-2 melanoma): 3.36 µM | GI50 (UO-31 renal): 1480 nM | TGI (UO-31 renal): 2850 nM | GI50 (CCRF-CEM leukemia): 2870 nM | TGI (CCRF-CEM leukemia): 11.7 µM | GI50 (NCI-H522 lung): 1550 nM | TGI (NCI-H522 lung): 3.21 µM | GI50 (SW-620 colon): 2160 nM | TGI (SW-620 colon): 5 µM | GI50 (UACC-62 melanoma): 1580 nM | TGI (UACC-62 melanoma): 3.05 µM | GI50 (OVCAR-8 ovarian): 1830 nM | TGI (OVCAR-8 ovarian): 3.67 µM | GI50 (A498 renal): 1740 nM | TGI (A498 renal): 3.89 µM | GI50 (ACHN renal): 1780 nM | TGI (ACHN renal): 4.05 µM | GI50 (SR leukemia): 1700 nM | TGI (SR leukemia): 7.3 µM | GI50 (CAKI-1 renal): 1440 nM | TGI (CAKI-1 renal): 2960 nM | GI50 (UACC-257 melanoma): 1730 nM | TGI (UACC-257 melanoma): 3.34 µM | GI50 (HS 578T breast): 2440 nM | TGI (HS 578T breast): 5.92 µM | GI50 (NCI-H23 lung): 2360 nM | TGI (NCI-H23 lung): 7.02 µM | GI50 (U251 CNS): 1790 nM | TGI (U251 CNS): 3.65 µM | GI50 (OVCAR-5 ovarian): 2550 nM | TGI (OVCAR-5 ovarian): 7.8 µM | GI50 (M14 melanoma): 1820 nM | TGI (M14 melanoma): 3.68 µM | GI50 (COLO 205 colon): 1950 nM | TGI (COLO 205 colon): 3.9 µM | GI50 (HCT-116 colon): 1590 nM | TGI (HCT-116 colon): 2930 nM | GI50 (SK-MEL-5 melanoma): 1890 nM | TGI (SK-MEL-5 melanoma): 3.5 µM | GI50 (SF-539 CNS): 1580 nM | TGI (SF-539 CNS): 3.09 µM | GI50 (A549 NSCLC): 2440 nM | TGI (A549 NSCLC): > 100 µM | GI50 (SNB-75 CNS): 2410 nM | TGI (SNB-75 CNS): 9.59 µM | GI50 (T-47D breast): 2070 nM | TGI (T-47D breast): 5.7 µM | GI50 (OVCAR-3 ovarian): 2220 nM | TGI (OVCAR-3 ovarian): 5.16 µM | GI50 (SN12C renal): 1660 nM
